# Results reported in PubChem BioAssay (NCI).
#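 Interpolation was linear, between the two tested concentrations surrounding the appropriate level; five concentrations were tested over 48 hours in 96-well plates. At the TGI there is no net growth.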
# Experiments:
# Experiment in all cases: NCI-60 cell line screen, 48 h
# SK-MEL-28 melanoma = tested on: SK-MEL-28 melanoma
# COLO 205 colon = tested on: COLO 205 colon
# SNB-78 CNS = tested on: SNB-78 CNS
# HOP-18 NSCLC = tested on: HOP-18 NSCLC
# KM20L2 colon = tested on: KM20L2 colon
# CCRF-CEM leukemia = tested on: CCRF-CEM leukemia
# OVCAR-4 ovarian = tested on: OVCAR-4 ovarian
# HOP-92 NSCLC = tested on: HOP-92 NSCLC
# XF 498 CNS = tested on: XF 498 CNS
# NCI-H522 lung = tested on: NCI-H522 lung
# UACC-257 melanoma = tested on: UACC-257 melanoma
# NCI-H23 lung = tested on: NCI-H23 lung
# ACHN renal = tested on: ACHN renal
# M19-MEL melanoma = tested on: M19-MEL melanoma
# SF-539 CNS = tested on: SF-539 CNS
# LXFL 529 NSCLC = tested on: LXFL 529 NSCLC
# SNB-75 CNS = tested on: SNB-75 CNS
# UACC-62 melanoma = tested on: UACC-62 melanoma
# EKVX NSCLC = tested on: EKVX NSCLC
# OVCAR-3 ovarian = tested on: OVCAR-3 ovarian
# 786-0 renal = tested on: 786-0 renal
# HOP-62 NSCLC = tested on: HOP-62 NSCLC
# KM12 colon = tested on: KM12 colon
# SNB-19 CNS = tested on: SNB-19 CNS
# LOX IMVI melanoma = tested on: LOX IMVI melanoma
# DLD-1 colon = tested on: DLD-1 colon
# NCI-H460 lung = tested on: NCI-H460 lung
# OVCAR-5 ovarian = tested on: OVCAR-5 ovarian
# SK-MEL-2 melanoma = tested on: SK-MEL-2 melanoma
# HCT-15 colon = tested on: HCT-15 colon
# HCT-116 colon = tested on: HCT-116 colon
# DMS 273 small cell lung = tested on: DMS 273 small cell lung
# SR leukemia = tested on: SR leukemia
# K-562 leukemia = tested on: K-562 leukemia
# OVCAR-8 ovarian = tested on: OVCAR-8 ovarian
# SN12C renal = tested on: SN12C renal
# HL-60(TB) leukemia = tested on: HL-60(TB) leukemia
# A498 renal = tested on: A498 renal
# A549 NSCLC = tested on: A549 NSCLC
# SF-295 CNS = tested on: SF-295 CNS
# M14 melanoma = tested on: M14 melanoma
# SK-OV-3 ovarian = tested on: SK-OV-3 ovarian
# HT29 colon = tested on: HT29 colon
# MALME-3M melanoma = tested on: MALME-3M melanoma
# SK-MEL-5 melanoma = tested on: SK-MEL-5 melanoma
# RPMI-8226 leukemia = tested on: RPMI-8226 leukemia
# CAKI-1 renal = tested on: CAKI-1 renal
# IGROV1 ovarian = tested on: IGROV1 ovarian
# DMS 114 small cell lung = tested on: DMS 114 small cell lung
# NCI-H226 lung = tested on: NCI-H226 lung
# U251 CNS = tested on: U251 CNS
# MOLT-4 leukemia = tested on: MOLT-4 leukemia
# SW-620 colon = tested on: SW-620 colon
# SF-268 CNS = tested on: SF-268 CNS
# HCC-2998 colon = tested on: HCC-2998 colon
# TK-10 renal = tested on: TK-10 renal
# RXF 393 renal = tested on: RXF 393 renal
# UO-31 renal = tested on: UO-31 renal
smiles,measurement,setting,value
Cc1cc(O)c(C=O)c(C)c1CCC1(C)C=Cc2cc(O)ccc2O1 (configuration not stated),TGI,SK-MEL-28 melanoma,54 µM
same,TGI,COLO 205 colon,30.4 µM
same,TGI,SNB-78 CNS,86.4 µM
same,TGI,HOP-18 NSCLC,60.5 µM
same,TGI,KM20L2 colon,57.4 µM
same,TGI,CCRF-CEM leukemia,48.8 µM
same,TGI,OVCAR-4 ovarian,67 µM
same,TGI,HOP-92 NSCLC,57.9 µM
same,TGI,XF 498 CNS,52.7 µM
same,TGI,NCI-H522 lung,28.2 µM
same,TGI,UACC-257 melanoma,53.7 µM
same,TGI,NCI-H23 lung,43.9 µM
same,TGI,ACHN renal,38.6 µM
same,TGI,M19-MEL melanoma,> 100 µM
same,TGI,SF-539 CNS,38.9 µM
same,TGI,LXFL 529 NSCLC,29.8 µM
same,TGI,SNB-75 CNS,94.1 µM
same,TGI,UACC-62 melanoma,43 µM
same,TGI,EKVX NSCLC,94.4 µM
same,TGI,OVCAR-3 ovarian,56.3 µM
same,TGI,786-0 renal,> 100 µM
same,TGI,HOP-62 NSCLC,43.2 µM
same,TGI,KM12 colon,> 100 µM
same,TGI,SNB-19 CNS,> 100 µM
same,TGI,LOX IMVI melanoma,40.3 µM
same,TGI,DLD-1 colon,38 µM
same,TGI,NCI-H460 lung,52.5 µM
same,TGI,OVCAR-5 ovarian,79.1 µM
same,TGI,SK-MEL-2 melanoma,53.9 µM
same,TGI,HCT-15 colon,55.1 µM
same,TGI,HCT-116 colon,30.9 µM
same,TGI,DMS 273 small cell lung,46.4 µM
same,TGI,SR leukemia,> 100 µM
same,TGI,K-562 leukemia,67.9 µM
same,TGI,OVCAR-8 ovarian,31.4 µM
same,TGI,SN12C renal,> 100 µM
same,TGI,HL-60(TB) leukemia,60.3 µM
same,TGI,A498 renal,> 100 µM
same,TGI,A549 NSCLC,> 100 µM
same,TGI,SF-295 CNS,67.6 µM
same,TGI,M14 melanoma,35 µM
same,TGI,SK-OV-3 ovarian,85.6 µM
same,TGI,HT29 colon,82.2 µM
same,TGI,MALME-3M melanoma,71.4 µM
same,TGI,SK-MEL-5 melanoma,71.2 µM
same,TGI,RPMI-8226 leukemia,56.1 µM
same,TGI,CAKI-1 renal,37.1 µM
same,TGI,IGROV1 ovarian,> 100 µM
same,TGI,DMS 114 small cell lung,44.7 µM
same,TGI,NCI-H226 lung,> 100 µM
same,TGI,U251 CNS,48.8 µM
same,TGI,MOLT-4 leukemia,50.5 µM
same,TGI,SW-620 colon,45 µM
same,TGI,SF-268 CNS,> 100 µM
same,TGI,HCC-2998 colon,79.2 µM
same,TGI,TK-10 renal,> 100 µM
CCc1cccc(C)c1NC(=O)CC(=O)NNC(N)=S,TGI,SK-MEL-28 melanoma,> 100 µM
same,TGI,COLO 205 colon,> 100 µM
same,TGI,SNB-78 CNS,> 100 µM
same,TGI,HOP-18 NSCLC,> 100 µM
same,TGI,KM20L2 colon,> 100 µM
same,TGI,CCRF-CEM leukemia,> 100 µM
same,TGI,OVCAR-4 ovarian,> 100 µM
same,TGI,HOP-92 NSCLC,> 100 µM
same,TGI,XF 498 CNS,> 100 µM
same,TGI,NCI-H522 lung,> 100 µM
same,TGI,UACC-257 melanoma,> 100 µM
same,TGI,NCI-H23 lung,> 100 µM
same,TGI,ACHN renal,> 100 µM
same,TGI,LXFL 529 NSCLC,> 100 µM
same,TGI,SNB-75 CNS,> 100 µM
same,TGI,EKVX NSCLC,> 100 µM
same,TGI,OVCAR-3 ovarian,> 100 µM
same,TGI,786-0 renal,> 100 µM
same,TGI,HOP-62 NSCLC,> 100 µM
same,TGI,KM12 colon,> 100 µM
same,TGI,SNB-19 CNS,> 100 µM
same,TGI,LOX IMVI melanoma,> 100 µM
same,TGI,DLD-1 colon,> 100 µM
same,TGI,NCI-H460 lung,> 100 µM
same,TGI,OVCAR-5 ovarian,> 100 µM
same,TGI,HCT-15 colon,> 100 µM
same,TGI,DMS 273 small cell lung,> 100 µM
same,TGI,K-562 leukemia,> 100 µM
same,TGI,OVCAR-8 ovarian,> 100 µM
same,TGI,SN12C renal,> 100 µM
same,TGI,HL-60(TB) leukemia,> 100 µM
same,TGI,RXF 393 renal,> 100 µM
same,TGI,A549 NSCLC,> 100 µM
same,TGI,SF-295 CNS,> 100 µM
same,TGI,M14 melanoma,> 100 µM
same,TGI,SK-OV-3 ovarian,> 100 µM
same,TGI,HT29 colon,> 100 µM
same,TGI,MALME-3M melanoma,> 100 µM
same,TGI,SK-MEL-5 melanoma,> 100 µM
same,TGI,RPMI-8226 leukemia,> 100 µM
same,TGI,CAKI-1 renal,> 100 µM
same,TGI,DMS 114 small cell lung,> 100 µM
same,TGI,NCI-H226 lung,> 100 µM
same,TGI,U251 CNS,> 100 µM
same,TGI,MOLT-4 leukemia,> 100 µM
same,TGI,SW-620 colon,> 100 µM
same,TGI,SF-268 CNS,> 100 µM
same,TGI,HCC-2998 colon,> 100 µM
same,TGI,TK-10 renal,> 100 µM
same,TGI,UO-31 renal,> 100 µM
CCOC(=O)C1=C(OC(OCC)C(C)[Se]c2ccccc2)CCC1 (configuration not stated),TGI,SK-MEL-28 melanoma,62.7 µM
same,TGI,COLO 205 colon,82.2 µM
same,TGI,SNB-78 CNS,> 100 µM
same,TGI,HOP-18 NSCLC,51.7 µM
same,TGI,KM20L2 colon,74.2 µM
same,TGI,CCRF-CEM leukemia,49.7 µM
same,TGI,OVCAR-4 ovarian,37.5 µM
same,TGI,HOP-92 NSCLC,48.3 µM
same,TGI,XF 498 CNS,34.4 µM
same,TGI,NCI-H522 lung,26.9 µM
same,TGI,UACC-257 melanoma,> 100 µM
same,TGI,NCI-H23 lung,27.9 µM
same,TGI,ACHN renal,68.4 µM
same,TGI,M19-MEL melanoma,38.9 µM
same,TGI,SF-539 CNS,39.9 µM
same,TGI,LXFL 529 NSCLC,37.4 µM
same,TGI,SNB-75 CNS,73.6 µM
same,TGI,UACC-62 melanoma,43.6 µM
same,TGI,EKVX NSCLC,59.1 µM
same,TGI,OVCAR-3 ovarian,32 µM
same,TGI,786-0 renal,25.1 µM
same,TGI,HOP-62 NSCLC,> 100 µM
same,TGI,KM12 colon,> 100 µM
same,TGI,SNB-19 CNS,> 100 µM
same,TGI,LOX IMVI melanoma,20.4 µM
same,TGI,DLD-1 colon,40.5 µM
same,TGI,NCI-H460 lung,60 µM
same,TGI,OVCAR-5 ovarian,> 100 µM
same,TGI,SK-MEL-2 melanoma,> 100 µM
same,TGI,HCT-15 colon,33.6 µM
same,TGI,HCT-116 colon,38.8 µM
same,TGI,DMS 273 small cell lung,22.4 µM
same,TGI,SR leukemia,28 µM
same,TGI,K-562 leukemia,> 100 µM
same,TGI,OVCAR-8 ovarian,30.1 µM
same,TGI,SN12C renal,36.5 µM
same,TGI,HL-60(TB) leukemia,21.2 µM
same,TGI,A498 renal,> 100 µM
same,TGI,RXF 393 renal,30.2 µM
same,TGI,A549 NSCLC,> 100 µM
same,TGI,SF-295 CNS,79.3 µM
same,TGI,M14 melanoma,63.2 µM
same,TGI,SK-OV-3 ovarian,> 100 µM
same,TGI,HT29 colon,77.6 µM
same,TGI,MALME-3M melanoma,89.5 µM
same,TGI,SK-MEL-5 melanoma,39.9 µM
same,TGI,RPMI-8226 leukemia,36.5 µM
same,TGI,CAKI-1 renal,> 100 µM
same,TGI,IGROV1 ovarian,81 µM
same,TGI,NCI-H226 lung,50.4 µM
same,TGI,U251 CNS,20.1 µM
same,TGI,MOLT-4 leukemia,58.5 µM
same,TGI,SF-268 CNS,32.3 µM
same,TGI,HCC-2998 colon,> 100 µM
same,TGI,TK-10 renal,> 100 µM
same,TGI,UO-31 renal,47.1 µM
